US12076307B2, “Compositions for prevention or treatment of acute radiation syndrome and other radiation exposure” (priority 2017, dated 2024)

How the values were obtained:
[1] = Plasma and lymphatic concentrations of EC-18 in rats after single oral administration; assay type: in vivo, rat; conditions: for AUC(0-t) / Cmax / Tmax / half-life: n=3
Description: After administering a single oral dose of 500 or 2000 mg/kg of EC-18 (vehicle: olive oil) to male SD rats, the EC-18 concentration in the sampled plasma and lymphatic fluid was measured to generate the values of PK parameters (Table 16). […] The rate of increase in plasma Cmax and AUClast was lower than the rate of increase of the administered dosage.

[2] = tested on: Balb/c mice, TBI 6.5 Gy; test: Survival in extreme LD100 TBI murine model (6.5 Gy); assay type: in vivo, mouse; conditions: for Survival: 250 mg/kg/day 16 days
Description: Animals were treated orally with phosphate-buffered saline or EC-18 at 250 mg/kg/day for 16 days.

[3] = target: T1, P-gp (Homo sapiens, UniProt P08183); test: Drug transporter inhibition, P-gp; assay type: in vitro ADME; conditions: [3H]digoxin; transfected LLC-PK1 cells
T1 construct: expressed in transfected cells; host or cells: LLC-PK1
Description: (§1) This study examined the potential of EC-18 to interact with the transporter proteins that have been known to be involved in the absorption of commercially available drugs. EC-18 was pre-incubated with HEK-293 cells and LLC-PK1 cells that were transfected with the genes of most drug transporters as follows: OATP1B1, OATP1B3, OAT1, OAT3 and OCT2, and BCRP and P-gp, respectively.

[4] = target: T2, OAT3 (Homo sapiens, UniProt Q8TCC7); test: Drug transporter inhibition, OAT3; assay type: in vitro ADME; conditions: 100 nM [3H] estrone-3-sulfate; transfected HEK-293 cells
T2 construct: expressed in transfected cells; host or cells: HEK-293
Description: as §1

[5] = Plasma radioactivity in rats after single oral or IV [14C]EC-18; assay type: in vivo, rat; conditions: oral, fed condition
Description: Male SD rats in the fed state were administered a single oral dose of 25, 50, or 100 mg/kg (vehicle: olive oil) or a single IV injection of 10 mg/kg of [^14C]EC-18 (EC-18 with radioactive isotope ^14C attached). Subsequently, the PK parameters were assessed. The concentration of radioactivity in rat plasma was measured by liquid scintillation counting (LSC) method after adding a scintillator (Clear-Sol I, Nacalai Tesque, Inc).

[6] = tested on: SD rat; test: Single-dose toxicity, SD rat; assay type: in vivo
Excerpt: Various toxicology studies have been performed. All studies were GLP-compliant unless otherwise noted.

[7] = tested on: Sprague Dawley rats; test: Respiratory function in rats; assay type: in vivo, rat; conditions: single oral doses up to 2000 mg/kg
Description: EC-18 was orally administered to Sprague Dawley rats (n=6 males/group) at single doses of 0, 500, 1000 and 2000 mg/kg. Tidal volume, respiration rate per minute and minute volume were measured with whole-body plethysmograph at 0 (pre-dose), 1, 2 and 4-hr post-dose.

[8] = target: T3, OATP1B3 (Homo sapiens, UniProt Q9NPD5); test: Drug transporter inhibition, OATP1B3; assay type: in vitro ADME; conditions: 100 nM [3H] estradiol-17β-D-glucuronide; transfected HEK-293 cells
T3 construct: expressed in transfected cells; host or cells: HEK-293
Description: as §1

[9] = tested on: gemcitabine-treated mice; test: Gemcitabine-induced neutropenia, PLAG with pegfilgrastim; assay type: in vivo, mouse
Description: In this work, neutrophil counts were compared in four groups of mice: control mice, gemcitabine-treated mice, gemcitabine/pegfilgrastim-treated mice, and gemcitabine/pegfilgrastim/PLAG-treated mice. Gemcitabine was administered intraperitoneally to induce neutropenia. On Day 0, pegfilgrastim was administered subcutaneously. PLAG (50 mg/kg) was orally administered every day during the treatment course. Blood was taken from the orbital sinuses on Days 0, 3, and 5, and neutrophils were counted. […] Pegfilgrastin is polyethylene glycol (PEG)-conjugated granulocyte colony-stimulating factor (PEGylated-G-CSF, pegfilgrastim).

[10] = Plasma protein binding by rapid equilibrium dialysis, human
Description: The plasma protein binding ability of EC-18 was tested by rapid equilibrium dialysis (RED). The chamber separated by a dialysis tubing membrane (cut-off: 8 kDa) was filled on one side with rat or human plasma mixed with phosphate buffer and on the other side with rat or human plasma mixed with the test or standard reference material (test concentration: 1 μM).

[11] = tested on: mice, 5-FU + X-radiation 20 Gy on heads and necks; test: CRIOM (chemoradiation-induced oral mucositis) murine model; assay type: in vivo, mouse
Excerpt: Radiation-Induced Coagulopathy is worsened in more severe syndromes including mucositis in the oral cavity and GI. As described above, exposure to radiation stimulates DAMP release and DAMP recognized by PRR results in an inflammatory response that causes apoptosis, mucosal atrophy, and ulceration. Specifically, TLR-4 has been identified as a major PRR, which plays a critical role in the pathogenesis of mucosal injury (Vasconcelos et al., 2016). To investigate the mitigating effect of EC-18 against CRIOM, different doses of EC-18 were administered to mice daily. CRIOM mouse model was established using concurrent treatments with 5-FU (100 mg/kg, i.p.) and X-radiation (20 Gy) on heads and necks of mice. PBS or EC-18 (100 and 250 mg/kg, p.o.) was administered daily (n=5 for each group). The body weights of mice were observed, and the mice were sacrificed on day 9.

[12] = target: T4, CYP1A2 (Homo sapiens, UniProt P05177); test: in vitro; assay type: in vitro ADME; conditions: human, microsomes
T4 construct: incubated with human liver microsomes; from tissue; host or cells: human liver microsomes

[13] = male, SD, rat, Lymph, 500 mg/kg oral
[14] = male, SD, rat, Lymph, 2000 mg/kg oral
[15] = male, SD, rat, Plasma, 500 mg/kg oral
[16] = male, SD, rat, Plasma, 2000 mg/kg oral

T1 sequence (P08183 whole entry): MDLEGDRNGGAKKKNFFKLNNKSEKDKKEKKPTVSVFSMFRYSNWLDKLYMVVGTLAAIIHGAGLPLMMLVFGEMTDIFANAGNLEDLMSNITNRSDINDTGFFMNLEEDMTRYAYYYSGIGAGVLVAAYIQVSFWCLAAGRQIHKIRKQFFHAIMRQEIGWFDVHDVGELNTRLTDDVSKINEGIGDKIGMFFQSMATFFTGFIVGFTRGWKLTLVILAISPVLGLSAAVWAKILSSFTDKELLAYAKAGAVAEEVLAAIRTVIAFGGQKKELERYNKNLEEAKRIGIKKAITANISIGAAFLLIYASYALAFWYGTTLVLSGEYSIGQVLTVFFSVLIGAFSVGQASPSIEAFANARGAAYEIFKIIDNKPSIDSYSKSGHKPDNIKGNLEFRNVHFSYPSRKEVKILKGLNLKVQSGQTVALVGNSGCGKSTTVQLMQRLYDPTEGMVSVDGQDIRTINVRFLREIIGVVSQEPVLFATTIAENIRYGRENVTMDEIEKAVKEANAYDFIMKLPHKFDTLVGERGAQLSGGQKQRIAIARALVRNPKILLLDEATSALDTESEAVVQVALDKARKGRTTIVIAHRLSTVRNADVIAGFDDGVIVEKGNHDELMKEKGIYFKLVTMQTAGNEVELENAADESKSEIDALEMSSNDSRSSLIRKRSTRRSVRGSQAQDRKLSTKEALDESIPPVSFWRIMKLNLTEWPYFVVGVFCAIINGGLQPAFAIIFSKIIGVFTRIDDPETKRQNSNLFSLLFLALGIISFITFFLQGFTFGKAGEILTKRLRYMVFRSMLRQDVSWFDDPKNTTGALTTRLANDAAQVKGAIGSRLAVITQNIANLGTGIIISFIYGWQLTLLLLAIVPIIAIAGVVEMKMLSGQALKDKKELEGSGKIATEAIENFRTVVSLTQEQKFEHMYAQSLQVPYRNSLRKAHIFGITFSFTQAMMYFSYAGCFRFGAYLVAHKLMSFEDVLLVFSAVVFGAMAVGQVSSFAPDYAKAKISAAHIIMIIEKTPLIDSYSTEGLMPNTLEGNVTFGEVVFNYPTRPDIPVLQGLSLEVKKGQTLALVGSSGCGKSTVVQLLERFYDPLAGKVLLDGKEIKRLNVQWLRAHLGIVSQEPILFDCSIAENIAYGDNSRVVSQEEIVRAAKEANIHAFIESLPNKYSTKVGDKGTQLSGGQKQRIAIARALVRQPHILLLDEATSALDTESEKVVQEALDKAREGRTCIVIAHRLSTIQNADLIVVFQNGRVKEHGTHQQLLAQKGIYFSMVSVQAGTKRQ
T4 sequence (P05177 whole entry): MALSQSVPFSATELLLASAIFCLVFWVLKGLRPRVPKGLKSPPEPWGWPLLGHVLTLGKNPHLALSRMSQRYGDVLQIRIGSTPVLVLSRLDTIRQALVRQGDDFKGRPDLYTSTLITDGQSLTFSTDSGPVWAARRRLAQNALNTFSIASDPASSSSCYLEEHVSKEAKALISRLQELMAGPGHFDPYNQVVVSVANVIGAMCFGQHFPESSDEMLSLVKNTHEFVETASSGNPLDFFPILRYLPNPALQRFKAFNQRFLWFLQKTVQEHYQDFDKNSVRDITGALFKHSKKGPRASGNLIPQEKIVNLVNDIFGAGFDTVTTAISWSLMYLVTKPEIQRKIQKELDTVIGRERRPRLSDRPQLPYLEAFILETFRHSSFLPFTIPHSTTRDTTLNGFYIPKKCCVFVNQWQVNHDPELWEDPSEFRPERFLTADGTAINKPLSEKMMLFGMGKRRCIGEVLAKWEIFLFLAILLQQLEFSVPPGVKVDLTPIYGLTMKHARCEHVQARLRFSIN
T2 sequence (Q8TCC7 whole entry, species assumed): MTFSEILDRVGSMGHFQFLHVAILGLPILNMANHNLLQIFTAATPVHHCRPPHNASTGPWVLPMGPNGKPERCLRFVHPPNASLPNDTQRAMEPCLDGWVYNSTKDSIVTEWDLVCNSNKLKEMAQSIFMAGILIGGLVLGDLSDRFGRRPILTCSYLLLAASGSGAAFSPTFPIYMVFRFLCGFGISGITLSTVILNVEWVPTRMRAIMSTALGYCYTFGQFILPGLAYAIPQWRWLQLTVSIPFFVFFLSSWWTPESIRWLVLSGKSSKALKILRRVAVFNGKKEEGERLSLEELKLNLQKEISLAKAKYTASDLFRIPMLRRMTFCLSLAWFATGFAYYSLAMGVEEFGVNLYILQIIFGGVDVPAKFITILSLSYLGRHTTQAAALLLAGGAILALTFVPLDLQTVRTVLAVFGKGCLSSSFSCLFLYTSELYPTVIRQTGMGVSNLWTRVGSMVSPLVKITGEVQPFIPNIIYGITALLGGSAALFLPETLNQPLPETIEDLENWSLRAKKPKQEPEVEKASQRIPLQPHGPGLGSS
T3 sequence (Q9NPD5 whole entry, species assumed): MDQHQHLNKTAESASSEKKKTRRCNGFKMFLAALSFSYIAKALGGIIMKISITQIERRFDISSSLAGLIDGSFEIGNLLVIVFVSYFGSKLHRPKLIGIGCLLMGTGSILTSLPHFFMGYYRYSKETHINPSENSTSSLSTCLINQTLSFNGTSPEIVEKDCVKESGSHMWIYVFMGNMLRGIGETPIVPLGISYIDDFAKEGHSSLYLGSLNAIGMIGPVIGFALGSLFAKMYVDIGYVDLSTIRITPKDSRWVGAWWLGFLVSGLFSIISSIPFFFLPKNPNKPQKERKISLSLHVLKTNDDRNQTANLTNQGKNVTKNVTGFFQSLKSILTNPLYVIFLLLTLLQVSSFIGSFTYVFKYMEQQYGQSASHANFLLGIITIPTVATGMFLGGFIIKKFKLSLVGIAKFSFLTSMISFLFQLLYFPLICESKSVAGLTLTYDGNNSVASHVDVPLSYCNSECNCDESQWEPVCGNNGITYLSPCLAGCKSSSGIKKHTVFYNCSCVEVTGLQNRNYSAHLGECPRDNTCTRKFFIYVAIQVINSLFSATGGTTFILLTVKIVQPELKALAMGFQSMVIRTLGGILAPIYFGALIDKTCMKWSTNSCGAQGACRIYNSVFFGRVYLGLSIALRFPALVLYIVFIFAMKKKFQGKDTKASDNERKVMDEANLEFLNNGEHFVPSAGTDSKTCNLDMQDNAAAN

In the case of `CCCCC/C=C\C/C=C\CCCCCCCC(=O)OC(COC(C)=O)COC(=O)CCCCCCCCCCCCCCC` (centres unmarked) [EC-18, 1-palmitoyl-2-linoleoyl-3-acetylglycerol], the bioavailability ([1]; male, SD, rat, plasma, 500-2000 mg/kg oral, read-out: mean absolute bioavailability (BA)) is reported as less than 0.3%, the AUC(0-t) [1, 13] is reported as 903 ± 272 ng·h/mL and the Cmax [1, 13] is reported as 78.1 ± 34.1 ng/mL. The Tmax [1, 13] was 3.33 ± 1.15 h, the AUC(0-t) [1, 14] was 2630 ± 1130 ng·h/mL and the Cmax [1, 14] was 245 ± 54.2 ng/mL. The Tmax [1, 14] was 3 ± 2.65 h, the half-life [1, 14] was 12.3 ± 5.08 h and the AUC(0-t) [1, 15] was 6.97 ± 8.2 ng·h/mL. For the same compound, the Cmax [1, 15] was 6.87 ± 6.12 ng/mL, the Tmax [1, 15] was 0.5 ± 0.5 h and the AUC(0-t) [1, 16] was 44.5 ± 39.5 ng·h/mL. It also gave a Cmax [1, 16] of 12.1 ± 6.66 ng/mL, a Tmax [1, 16] of 1.67 ± 0.58 h and a half-life [1, 16] of 3.07 ± 0.87 h. The “time to reach the lymphatic system” value ([1]; single oral) was no more than 3 h, the time to absorption ([1]; single oral 500 or 2000 mg/kg) was no more than 2 h and the “signs of subcutaneous hemorrhage” value ([2]; 250 mg/kg/day) was “markedly improved”. It also gave a Survival ([2]; started 24-hr post-irradiation) of 65%, a Survival ([2]; started 48-hr post-irradiation) of 25% and an IC50 [3] greater than 32 µM. For the same compound, the IC50 [4] was greater than 32 µM, the “absolute bioavailability (BA)” value [5] was “approximately 46%” and the Approximate lethal dose ([6]; Oral) was “dose: >2000 mg/kg”. The mortality ([6]; Oral, 0, 2000 mg/kg) was “No dead animals”, the respiratory function [7] was “did affect the respiratory function” and the IC50 [8] was greater than 32 µM. For the same compound, the “blood cell apoptosis and neutrophil release from bone marrow” value ([9]; PLAG 50 mg/kg) was “did not affect”, the “pegfilgrastim-induced CXCR2 expression in neutrophils” value ([9]; PLAG 50 mg/kg) was “markedly decreased” and the neutrophil counts ([9]; gemcitabine/pegfilgrastim/PLAG 50 mg/kg oral daily, third day following pegfilgrastim) was “dramatically increased”. For the same compound, the “Plasma Protein Binding Rate” value ([10]; Humans, 1 μM, 4 hrs RED, n=3) was greater than 99%, the fraction unbound at 4 hrs, 1 μM ([10]; human, plasma) was less than 0.01 and the “thickness of the oral epithelium” value ([11]; ChemoRT + EC-18) was “protective effect”. For the same compound, the “DAMPs (HMGB1, HSP90) in serum” value ([11]; ChemoRT + EC-18 250 mg/kg) was “subsided levels of DAMPs”, the “MIP-2 and IL-6 in serum” value ([11]; ChemoRT + EC-18 250 mg/kg) was “substantially less systemic inflammation” and the “expression level of CXCL2 and IL-6 mRNA in tongues” value ([11]; ChemoRT + EC-18 250 mg/kg) was “downregulated”. For the same compound, the “necroptotic signaling axis (RIPK1, RIPK3, MLKL phosphorylation) in tongues” value ([11]; ChemoRT + EC-18 250 mg/kg) was “significantly modulated”, the “neutrophils recruited at oral epithelium (IHC)” value ([11]; ChemoRT + EC-18 250 mg/kg) was “did not” and the “OM score and rates of ulceration” value ([11]; ChemoRT + EC-18 100 and 250 mg/kg) was “statistically improvement of OM score and lower rates of ulceration dose-dependently”. For the same compound, the body weight ([11]; ChemoRT + EC-18 100 and 250 mg/kg p.o. daily) was “did not exhibit a significant weight loss” and the IC50 [12] was 24400 µM.
